From US20260347338A1, “PYRIMIDINE/PYRIDINE DERIVATIVES OR SALTS THEREOF AND PHARMACEUTICAL COMPOSITIONS COMPRISING THE SAME” (YUHAN CORPORATION, priority 2023, published 2026)
Structures can show the parent of a compound that is named as a salt.

The molecules below were run against T1, human recombinant HPK1 (Homo sapiens, UniProt Q92918) (assay: Inhibitory activity against human recombinant HPK1 (TR-FRET)). Conditions: ULight-p70S6K peptide, ATP at Km, room temperature, 1 hour, 0.32 to 1000 nM compound.
T1 construct: purchased BPS Bioscience
T1 sequence (Q92918 whole entry): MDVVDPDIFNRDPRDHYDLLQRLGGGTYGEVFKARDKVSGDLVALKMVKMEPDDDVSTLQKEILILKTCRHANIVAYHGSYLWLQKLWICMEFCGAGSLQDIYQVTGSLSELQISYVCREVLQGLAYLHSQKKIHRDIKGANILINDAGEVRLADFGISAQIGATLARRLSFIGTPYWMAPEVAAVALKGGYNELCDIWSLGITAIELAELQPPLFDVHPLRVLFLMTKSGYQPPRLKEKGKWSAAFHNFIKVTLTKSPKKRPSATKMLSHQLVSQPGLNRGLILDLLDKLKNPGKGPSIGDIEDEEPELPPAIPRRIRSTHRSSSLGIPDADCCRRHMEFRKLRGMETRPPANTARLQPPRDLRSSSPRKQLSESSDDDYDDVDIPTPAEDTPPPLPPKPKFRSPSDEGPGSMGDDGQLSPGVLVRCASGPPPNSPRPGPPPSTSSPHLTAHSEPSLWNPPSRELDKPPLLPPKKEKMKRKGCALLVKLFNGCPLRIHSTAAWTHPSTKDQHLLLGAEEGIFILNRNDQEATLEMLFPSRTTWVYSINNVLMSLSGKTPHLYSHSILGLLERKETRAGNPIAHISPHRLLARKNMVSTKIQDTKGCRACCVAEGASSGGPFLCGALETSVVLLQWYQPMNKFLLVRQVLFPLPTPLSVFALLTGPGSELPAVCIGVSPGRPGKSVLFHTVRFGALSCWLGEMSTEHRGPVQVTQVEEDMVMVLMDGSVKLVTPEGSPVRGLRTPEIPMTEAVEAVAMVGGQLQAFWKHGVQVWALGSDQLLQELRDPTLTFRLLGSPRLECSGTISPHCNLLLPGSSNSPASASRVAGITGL
Type: biochemical
Procedure, shortened: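 Recombinant human HPK1 with ULight-p70S6K peptide and ATP at Km, 1 h at room temperature in HEPES pH 7.4 buffer with Mg2+, Mn2+, EGTA, DTT; compounds 0.32–1000 nM final. EDTA stop, Eu-anti-phosphopeptide TR-FRET read (665 nm); IC50 from % inhibition versus DMSO, binned A–D at 10, 50, 100 nM.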

SMILES	IC50
COc1cccc(F)c1-c1nc(Nc2cc(N3CCC[C@H](O)C3)c(C(=O)N[C@@H]3CC[C@@H](N)C3)cn2)ccc1[N+](=O)[O-] [Example 199, N-((1R,3R)-3-aminocyclopentyl)-6-((6-(2-fluoro-6-methoxyphenyl)-5-nitropyridin-2-yl)amino)-4-((S)-3-hydroxypiperidin-1-yl)nicotinamide hydrochloride]	≤ 10 nM
COc1cccc(F)c1-c1nc(Nc2cc(N3CCC[C@H](O)C3)c(C(=O)N[C@@H]3CC[C@H](N)C3)cn2)ccc1[N+](=O)[O-] [Example 200, N-((1R,3S)-3-aminocyclopentyl)-6-((6-(2-fluoro-6-methoxyphenyl)-5-nitropyridin-2-yl)amino)-4-((S)-3-hydroxypiperidin-1-yl)nicotinamide]	≤ 10 nM
COc1cccc(F)c1-c1nc(Nc2cc(N3CCC[C@H](O)C3)c(C(=O)N[C@@H]3CC[C@@H](O)C3)cn2)ccc1N [Example 201, 6-((5-amino-6-(2-fluoro-6-methoxyphenyl)pyridin-2-yl)amino)-N-((1R,3R)-3-hydroxycyclopentyl)-4-((S)-3-hydroxypiperidin-1-yl)nicotinamide]	≤ 10 nM
COc1cccc(F)c1-c1nc(Nc2cc(N3CCC[C@H](O)C3)c(C(=O)N[C@@H]3CC[C@H](O)C3)cn2)ccc1N [Example 202, 6-((5-amino-6-(2-fluoro-6-methoxyphenyl)pyridin-2-yl)amino)-N-((1R,3S)-3-hydroxycyclopentyl)-4-((S)-3-hydroxypiperidin-1-yl)nicotinamide]	≤ 10 nM
COc1cccc(F)c1-c1nc(Nc2cc(N3CCC[C@H](O)C3)c(C(=O)N[C@@H]3CCN(C)C3)cn2)ccc1[N+](=O)[O-] [Example 203, 6-((6-(2-fluoro-6-methoxyphenyl)-5-nitropyridin-2-yl)amino)-4-((S)-3-hydroxypiperidin-1-yl)-N-((R)-1-methylpyrrolidin-3-yl)nicotinamide]	≤ 10 nM
COc1cccc(F)c1-c1nccc(Nc2cc(N3C[C@@H](C)C[C@H](N)C3)c(-c3cnn(C(F)F)c3)cn2)n1 [Example 205, N-(4-((3S,5S)-3-amino-5-methylpiperidin-1-yl)-5-(1-(difluoromethyl)-1H-pyrazol-4-yl)pyridin-2-yl)-2-(2-fluoro-6-methoxyphenyl)pyrimidin-4-amine hydrochloride]	≤ 10 nM
COc1cccc(F)c1-c1nccc(Nc2cc(N3CCC[C@](C)(N)C3)c(-c3cnn(C(F)F)c3)cn2)n1 [Example 206, (S)-N-(4-(3-amino-3-methylpiperidin-1-yl)-5-(1-(difluoromethyl)-1H-pyrazol-4-yl)pyridin-2-yl)-2-(2-fluoro-6-methoxyphenyl)pyrimidin-4-amine hydrochloride]	≤ 10 nM
COc1cccc(F)c1-c1nccc(Nc2cc(N3CC[C@@H](O)[C@H](N)C3)c(-c3cnn(C(F)F)c3)cn2)n1 [Example 209, (3R,4R)-3-amino-1-(5-(1-(difluoromethyl)-1H-pyrazol-4-yl)-2-((2-(2-fluoro-6-methoxyphenyl)pyrimidin-4-yl)amino)pyridin-4-yl)piperidin-4-ol hydrochloride]	≤ 10 nM
COc1cccc(F)c1-c1nccc(Nc2cc(N(C)C3CCC(O)CC3)c(-c3cnn(C(F)F)c3)cn2)n1 [Example 214, (1S,4S)-4-((5-(1-(difluoromethyl)-1H-pyrazol-4-yl)-2-((2-(2-fluoro-6-methoxyphenyl)pyrimidin-4-yl)amino)pyridin-4-yl)(methyl)amino)cyclohexan-1-ol]	≤ 10 nM
COc1cc(F)cc(F)c1-c1nccc(Nc2cc(N3CCC[C@H](O)C3)c(C#Cc3cnn(C(F)F)c3)cn2)n1 [Example 217, (S)-1-(2-((2-(2,4-difluoro-6-methoxyphenyl)pyrimidin-4-yl)amino)-5-((1-(difluoromethyl)-1H-pyrazol-4-yl)ethynyl)pyridin-4-yl)piperidin-3-ol]	≤ 10 nM
COc1cc(F)cc(F)c1-c1nccc(Nc2cc(N3CCC[C@H](O)C3)c(C#Cc3cnn(C(F)(F)F)c3)cn2)n1 [Example 218, (S)-1-(2-((2-(2,4-difluoro-6-methoxyphenyl)pyrimidin-4-yl)amino)-5-((1-(trifluoromethyl)-1H-pyrazol-4-yl)ethynyl)pyridin-4-yl)piperidin-3-ol]	≤ 10 nM
COc1cc(F)cc(F)c1-c1nccc(Nc2cc(N3CCC[C@H](O)C3)c(C#Cc3cnn(CC(F)F)c3)cn2)n1 [Example 219, (S)-1-(2-((2-(2,4-difluoro-6-methoxyphenyl)pyrimidin-4-yl)amino)-5-((1-(2,2-difluoroethyl)-1H-pyrazol-4-yl)ethynyl)pyridin-4-yl)piperidin-3-ol]	≤ 10 nM
COc1cc(F)cc(F)c1-c1nccc(Nc2cc(N3CCC[C@H](O)C3)c(C#Cc3cnn(CC(F)(F)F)c3)cn2)n1 [Example 220, (S)-1-(2-((2-(2,4-difluoro-6-methoxyphenyl)pyrimidin-4-yl)amino)-5-((1-(2,2,2-trifluoroethyl)-1H-pyrazol-4-yl)ethynyl)pyridin-4-yl)piperidin-3-ol]	≤ 10 nM
COc1cccc(F)c1-c1nc(Nc2cc(N3CCC[C@H](O)C3)c(C#Cc3cnn(CC(F)F)c3)cn2)ccc1[N+](=O)[O-] [Example 221, (3S)-1-(5-((1-(2,2-difluoroethyl)-1H-pyrazol-4-yl)ethynyl)-2-((6-(2-fluoro-6-methoxyphenyl)-5-nitropyridin-2-yl)amino)pyridin-4-yl)piperidin-3-ol]	≤ 10 nM
COc1cccc(F)c1-c1nc(Nc2cc(N3CCC[C@H](O)C3)c(C#Cc3cnn(C(F)F)c3)cn2)ccc1[N+](=O)[O-] [Example 222, (3S)-1-(5-((1-(difluoromethyl)-1H-pyrazol-4-yl)ethynyl)-2-((6-(2-fluoro-6-methoxyphenyl)-5-nitropyridin-2-yl)amino)pyridin-4-yl)piperidin-3-ol]	≤ 10 nM

Second part, the molecule after the results:

IC50	SMILES
≤ 10 nM	COc1cccc(F)c1-c1nccc(Nc2cc(N3CC[C@@H](C)[C@H](N)C3)c(-c3cnn(C(F)F)c3)cn2)n1 [Example 204, N-(4-((3S,4R)-3-amino-4-methylpiperidin-1-yl)-5-(1-(difluoromethyl)-1H-pyrazol-4-yl)pyridin-2-yl)-2-(2-fluoro-6-methoxyphenyl)pyrimidin-4-amine hydrochloride]
≤ 10 nM	COc1cccc(F)c1-c1nccc(Nc2cc(N3CC[C@H](F)[C@H](N)C3)c(-c3cnn(C(F)F)c3)cn2)n1 [Example 207, N-(4-((3R,4S)-3-amino-4-fluoropiperidin-1-yl)-5-(1-(difluoromethyl)-1H-pyrazol-4-yl)pyridin-2-yl)-2-(2-fluoro-6-methoxyphenyl)pyrimidin-4-amine hydrochloride]
≤ 10 nM	COc1cccc(F)c1-c1nccc(Nc2cc(N3CC[C@@H](F)[C@H](N)C3)c(-c3cnn(C(F)F)c3)cn2)n1 [Example 208, N-(4-((3R,4R)-3-amino-4-fluoropiperidin-1-yl)-5-(1-(difluoromethyl)-1H-pyrazol-4-yl)pyridin-2-yl)-2-(2-fluoro-6-methoxyphenyl)pyrimidin-4-amine hydrochloride]
≤ 10 nM	COc1cc(F)cc(F)c1-c1nccc(Nc2cc(N3C[C@@H](C)C[C@H](N)C3)c(-c3cnn(C(F)F)c3)cn2)n1 [Example 210, N-(4-((3S,5S)-3-amino-5-methylpiperidin-1-yl)-5-(1-(difluoromethyl)-1H-pyrazol-4-yl)pyridin-2-yl)-2-(2,4-difluoro-6-methoxyphenyl)pyrimidin-4-amine hydrochloride]
≤ 10 nM	COc1cc(F)cc(F)c1-c1nccc(Nc2cc(N3CC[C@@H](C)[C@H](N)C3)c(-c3cnn(C(F)F)c3)cn2)n1 [Example 211, N-(4-((3S,4R)-3-amino-4-methylpiperidin-1-yl)-5-(1-(difluoromethyl)-1H-pyrazol-4-yl)pyridin-2-yl)-2-(2,4-difluoro-6-methoxyphenyl)pyrimidin-4-amine hydrochloride]
≤ 10 nM	COc1cc(F)cc(F)c1-c1nccc(Nc2cc(N3CCC[C@](C)(N)C3)c(-c3cnn(C(F)F)c3)cn2)n1 [Example 212, (S)-N-(4-(3-amino-3-methylpiperidin-1-yl)-5-(1-(difluoromethyl)-1H-pyrazol-4-yl)pyridin-2-yl)-2-(2,4-difluoro-6-methoxyphenyl)pyrimidin-4-amine hydrochloride]
≤ 10 nM	COc1cc(F)cc(F)c1-c1nccc(Nc2cc(N3CC[C@@H](O)[C@H](N)C3)c(-c3cnn(C(F)F)c3)cn2)n1 [Example 213, (3R,4R)-3-amino-1-(2-((2-(2,4-difluoro-6-methoxyphenyl)pyrimidin-4-yl)amino)-5-(1-(difluoromethyl)-1H-pyrazol-4-yl)pyridin-4-yl)piperidin-4-ol hydrochloride]
≤ 10 nM	COc1cc(F)cc(F)c1-c1nc(Nc2cc(N3CC[C@@H](C)[C@H](N)C3)c(-c3cnn(C(F)F)c3)cn2)ccc1N [Example 215, N^2-(4-((3S,4R)-3-amino-4-methylpiperidin-1-yl)-5-(1-(difluoromethyl)-1H-pyrazol-4-yl)pyridin-2-yl)-6-(2,4-difluoro-6-methoxyphenyl)pyridin-2,5-diamine hydrochloride]
≤ 10 nM	COc1cc(F)cc(F)c1-c1nc(Nc2cc(N3CC[C@@H](F)[C@H](N)C3)c(-c3cnn(C(F)F)c3)cn2)ccc1N [Example 216, N^2-(4-((3R,4R)-3-amino-4-fluoropiperidin-1-yl)-5-(1-(difluoromethyl)-1H-pyrazol-4-yl)pyridin-2-yl)-6-(2,4-difluoro-6-methoxyphenyl)pyridin-2,5-diamine hydrochloride]
≤ 10 nM	COc1cc(F)cc(F)c1-c1nc(Nc2cc(N3CCC[C@H](O)C3)c(-c3cnn(CC(F)F)c3)cn2)ccc1[N+](=O)[O-] [Example 223, (3S)-1-(2-((6-(2,4-difluoro-6-methoxyphenyl)-5-nitropyridin-2-yl)amino)-5-(1-(2,2-difluoroethyl)-1H-pyrazol-4-yl)pyridin-4-yl)piperidin-3-ol]
